# Reference: publication PMC5458547, “Discovery of first-in-class reversible dual small molecule inhibitors against G9a and DNMTs in hematological malignancies” (Nature Communications, 2017)
# What was measured:
# CEMO-1 cells = assay: ALL CEMO-1 xenograft survival; format: in vivo, mice; settings: 1 mg/kg i.v. daily for 28 days
# Description: Statistical results were calculated using the statistical software medcalc.
# 270 nM for MV4-11 cell line and 200 and 400 nM for OCI-Ly10). Extracellular HMGB1 from 48 h cell culture supernatants was quantified by means of the HMGB1 ELISA Kit II (Shino Test Corp.), following the manufacturer's instructions.
# All animal studies had previous approval from the Animal Care and Ethics Committee of the University of Navarra, whereas experiments that used patient samples were approved by the Human Research Ethics Committees of University of Navarra.
# The human ALL CEMO-1 xenograft mice model was generated by intravenously (i.v.) injection of 10x10^6 cells diluted in 100 µL of saline solution in the tail vein of a 6-8-week-old female BALB/cA- Rag2-/-γc-/- mice (n=12). Three days after injection, antitumor treatment was started intravenously in 6 mice. 1 mg/kg […]
# The control group (n=6) received only
# The mice weight was controlled and stable during the treatment.
# Statistical results were calculated using the statistical software medcalc. […]
# consecutive days. […] Statistical results were calculated using the statistical software medcalc. […]
# The control group (n=6) received only saline solution. […] Statistical results were calculated using the statistical software medcalc. […]
# washout period, hematological and liver parameters were measured. […]
# washout period hematological and liver parameters were measured. […]
# CDK11 = molecular target: T1, CDK11 (Homo sapiens, UniProt Q9BWU1); assay: KINOMEscan kinase profiling; format: binding; settings: read-out: Percent Control
# T1 construct: purchased DiscoverX KINOMEscan (kinases); BPS Bioscience (epigenetic targets)
# Description: precipitate the proteins. The mixture was then agitated for 5 min and centrifuged at 13200 rpm for 10 min at 4 °C. A 5 µL aliquot of the resulting supernatant was injected onto the LC-MS/MS system for analysis.
# Frozen plasma samples were thawed at room temperature, vortexed thoroughly and subjected to the above described extraction procedure.
# The pharmacokinetic parameters were obtained by fitting the blood concentration-time data to a non-compartmental model with the WinNonlin software (Pharsight, Mountain View, CA). […]
# concentration-time profile for a dosing regimen of 2.5 mg/kg administered intravenously every 24 h for 3 weeks was simulated with Winnonlin.
# Kinase Selectivity Profiling
# (out of which 90 are non-mutant kinases) was performed at DiscoverRx (http://www.discoverx.com/home) using the KINOMEscan™ screening platform at a test concentration of 10 µM. Results for primary screen […]
# positive control signal) / (negative control signal – positive control signal) *100, where negative control corresponds to DMSO treatment (100%) and positive control to the signal obtained with a control competitive compound (0%). […]
# using the Hill equation. […]
# MicroScale Thermophoresis (MST) was performed to quantify biomolecular interactions between CM-579 and DNMT1 (full length). […]
# Cell proliferation was analyzed using the CellTiter 96 Aqueous One Solution Cell Proliferation Assay (Promega, Madison, W). […]
# MD-901 = assay: Cell proliferation assay (MTS); format: cell-based; settings: Homo sapiens; ABC-DLBCL, 48 h
# RIVA = assay: Cell proliferation assay (MTS); format: cell-based; settings: Homo sapiens; ABC-DLBCL, 48 h
# DB = assay: Cell proliferation assay (MTS); format: cell-based; settings: Homo sapiens, GC-DLBCL, 48 h
# OCI-Ly1 = assay: Cell proliferation assay (MTS); format: cell-based; settings: Homo sapiens, GC-DLBCL, 48 h
# OCI-Ly7 = assay: Cell proliferation assay (MTS); format: cell-based; settings: Homo sapiens, GC-DLBCL, 48 h
# PFEIFFER = assay: Cell proliferation assay (MTS); format: cell-based; settings: Homo sapiens, GC-DLBCL, 48 h
# J82 = assay: Cell proliferation assay (MTS); format: cell-based; settings: Homo sapiens, Bladder
# UM-UC-1 = assay: Cell proliferation assay (MTS); format: cell-based; settings: Homo sapiens; Bladder
# NP18 = assay: Cell proliferation assay (MTS); format: cell-based; settings: Homo sapiens; Pancreas
# H209 = assay: Cell proliferation assay (MTS); format: cell-based; settings: Homo sapiens, NCI-H209; SCLC
# T1 sequence (Q9BWU1 whole entry): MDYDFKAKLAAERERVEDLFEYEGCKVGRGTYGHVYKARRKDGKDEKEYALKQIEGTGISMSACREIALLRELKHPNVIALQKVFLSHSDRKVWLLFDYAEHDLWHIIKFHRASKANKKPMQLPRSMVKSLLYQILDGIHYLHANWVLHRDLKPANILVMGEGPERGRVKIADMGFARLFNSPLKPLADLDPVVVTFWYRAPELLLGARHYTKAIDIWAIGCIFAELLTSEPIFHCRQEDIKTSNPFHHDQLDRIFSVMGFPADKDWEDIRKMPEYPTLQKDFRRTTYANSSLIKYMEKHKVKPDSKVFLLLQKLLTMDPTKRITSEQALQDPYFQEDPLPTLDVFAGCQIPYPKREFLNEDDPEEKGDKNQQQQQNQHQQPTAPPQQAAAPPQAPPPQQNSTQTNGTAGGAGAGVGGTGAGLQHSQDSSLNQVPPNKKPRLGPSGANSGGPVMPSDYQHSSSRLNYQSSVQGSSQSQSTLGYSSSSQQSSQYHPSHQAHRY
smiles,measurement,setting,value
"COc1cc2c(NC3CCN(C)CC3)cc(-c3ccc(C)o3)nc2cc1OCCCN1CCCC1 [CM-272, 6-methoxy-2-(5-methyl-2-furyl)-N-(1-methyl-4-piperidyl)-7-(3-pyrrolidin-1-ylpropoxy)quinolin-4-amine]",survival,CEMO-1 cells,not able to prolong survival
same,remaining binding at 10 µM,CDK11,88%
same,GI50,MD-901,1.46 µM
same,GI50,RIVA,1.57 µM
same,GI50,DB,1.31 µM
same,GI50,OCI-Ly1,1.01 µM
same,GI50,OCI-Ly7,0.534 µM
same,GI50,PFEIFFER,1.22 µM
same,GI50,J82,> 10 µM
same,GI50,UM-UC-1,0.842 µM
same,GI50,NP18,0.577 µM
same,GI50,H209,1.15 µM
